Consider three compounds from patent publication US20140187507A1, “TREATMENT OF PARKINSONS DISEASE WITH GLYCOLIPIDS” (Rutgers, The State University of New Jersey, priority 2012, published 2014).

“Also recorded” adds a separate entry of the source.

The subject of data set [1] is GM1 deficient mice (HT, KO). Description: Motor function in GM1 deficient mice (grip duration, irritant removal, pole climbing). Format: in vivo, mouse. The following applies: HT mice 200 DOA. Here is the method:
FIG. 4. […] Grip duration (a) and irritant removal (b) were tested in mice at 200 DOA before and after IP injection of L-DOPA.
FIG. 5. […] Mice (200 DOA) were treated IP with saline or compound XVIII (2.5 mg/Kg; 3×/wk) over 5 weeks. (a) grip duration; (b) irritant removal; (c) pole climbing.
HT mice (200 DOA) were treated with saline or analog XVIII (2.5 mg/Kg; 3×/wk; IP) over 5 weeks.

In data set [2] the test system is RET phosphorylation (RET-p). Description: RET phosphorylation in GM1 deficient mice, IHC with anti-RET-P and anti-TH. It is filed as in vivo, mouse. The text has this:
FIG. 8. GM1 replacement restores normal RET phosphorylation (RET-p) from subnormal state in GM1 deficient mice.

Data set [3] relates to NG108-15 neuroblastoma cells. Description: Cell death and neurite outgrowth in MPP-treated differentiated neuroblastoma cells. Format: cell-based. The text has this:
FIG. 12. GM1 replacement therapy reduces cell death and increases neurite outgrowth. NG108-15 neuroblastoma cells were differentiated for 7 days with db-cAMP/KCl, then treated 2 days with MPP and indicated compound for 2 days. […] LIGA-20 is GM1 analog XVIII and compound 6 is analog XXXVII/XXXVIII.

The subject of data set [4] is NG-CR72 cells lacking GM1. Briefly: Spontaneous alpha-synuclein aggregation in differentiated cells deficient in GM1. Format: cell-based. The following applies: 1 μM; cells differentiated with db-cAMP/KCl. The text has this: FIG. 9. Spontaneous formation of alpha-synuclein aggregates in cells deficient in GM1.
Data set [5] relates to GM1 deficient mice (HT, KO). Briefly: Rescue of striatal dopamine levels and dopaminergic cells in the GM1 deficient mouse (IHC of SNpc). Format: in vivo. The following applies: HT mice 200 days old, 2.5 mg/Kg, 3x/wk, ip, 5 weeks, vs saline. Here is the method: FIG. 3. Reversal of PD neuropathology by GM1 replacement. HT mice (200 days old) were treated with saline or compound XVIII (2.5 mg/Kg; 3×/wk, ip) over 5 weeks.
Heterozygote mice (200 days old, DOA) were treated with saline or analog XVIII (2.5 mg/Kg; 3×/wk, IP) over 5 weeks.

Data set [6] has as its system HT GM1 deficient mice. Description: Cognitive function in GM1 deficient mice, T-maze test. It is filed as in vivo, mouse. The following applies: 4 wks dosing, 4 mice/group, saline control. Here is the method:
FIG. 6. […] T-maze test: 4 wks dosing with GM1 analog XVIII; 4 mice/group; age as indicated. The rate of alternation is a statistical plot as 0.5 (pure chance) to 1.0 (perfect score). Saline was administered as control.
HT and KO mice in two age groups were evaluated for cognitive function with the T maze test (FIG. 6).

For data set [7] the following is noted: peripheral subcutaneous administration; cited from earlier work.
Data set [8] deals with MPTP-treated mice. Description: Rescue of striatal dopamine levels and dopaminergic cells in MPTP-treated mice. The following applies: once daily for 3 weeks after MPTP; GM1 30 mg/kg IP; analogs 2, 3, 4, 6, LIGA20 at 0.3 or 30 mg/Kg IP or 30 mg/Kg PO (FIG. 10). It is filed as in vivo, C57B1/6 mice. Here is the method:
FIG. 10. GM1 analogs increase dopamine and TH+ cell numbers in the SNpc of MPTP treated mice. All agents administered once daily (I.P. or P.O.) for 3 weeks following MPTP treatment. (a) GM1 (1; 30 mg/Kg; IP), analog (3, 4 and 6; 0.3 mg/Kg; IP). (b) LIGA20 (2; 30 mg/Kg), analogs (2, 3 and 6; 30 mg/Kg; IP). (c) analogs (4 and 6; 30 mg/Kg; PO). (d) TH+IHC of the SNpc after treatment with saline or analog (6) (30 mg/Kg; PO) C=saline control. I and II are two separate experiments. Compound 2 is (XXIX/XXX), compound 3 is (XXVII/XXVIII), compound 4 is (XXXI/XXXII), compound 6 is (XXXVIII/XXXVII). LIGA20 is (XVIII).
C57B1/6 mice 7-8 weeks of age were treated with MPTP (b.i.d., 20 mg/kg, s.c.). The mice also receive a daily administration of saline, GM1 (30 mg/kg), or a compound of the invention (0.3 to 3 mg/kg, i.p. and 30 mg/kg os) for three weeks starting 24 h after the last MPTP injection. The brains were removed and analyzed for striatal dopamine levels. The midbrain were fixed for TH immunohistochemistry and dopamine neuron cell counts.

Data set [9] concerns rat cortical cells. Briefly: Protection of cortical cells from apoptosis (hydrogen peroxide, MTT assay). Format: cell-based. The following applies: 50 μM hydrogen peroxide, FIG. 11. Here is the method:
To induce apoptosis, rat cortical cells were cultured and treated with 50 μM hydrogen peroxide for three hours prior to being treated with the ganglioside analogue. The cells were also treated with the hydrogen peroxide during treatment with the ganglioside analogue and post-treatment for 48 h. Cell death was assayed using the MTT assay.
On the technique in general: Tetrazolium assays rely on reduction of a dye to a coloured formazan, in cell work by metabolically active cells.

In data set [10] the test system is Parkinson's disease patients. The following applies: peripheral subcutaneous administration for 5 years; cited from earlier work.
[11] abbreviates: 1 μM, differentiated 7 days with db-cAMP/KCl, MPP and compound 2 days.

With `N[C@@H](Cc1ccc(O)c(O)c1)C(=O)O` [L-DOPA, reference compound], the “motor deficits (grip duration, irritant removal)” value in data set [1] (before and after IP injection of L-DOPA) is reported as “alleviates motor deficits”.
As for `CCCCCCCCCCCCC/C=C/[C@@H](O)[C@H](CO[C@@H]1OC(CO)[C@@H](O[C@@H]2OC(CO)[C@H](O[C@@H]3OC(CO)[C@H](O)[C@H](O[C@@H]4OC(CO)[C@H](O)[C@H](O)C4O)C3NC(C)=O)[C@H](O[C@]3(C(=O)O)C[C@@H](O)[C@@H](NC(C)=O)C([C@H](O)[C@H](O)CO)O3)C2O)[C@H](O)C1O)NC(=O)C(Cl)Cl` (some centres unmarked) [compound XVIII], the “RET phosphorylation (RET-p)” value in [2] (HT mice (low GM1)) is “significantly elevated”. Also, the “RET phosphorylation (RET-p)” value in data set [2] (KO mice (no GM1)) is listed as “significantly elevated”. In data set [3] (setting [11]), the “% of cells with neurites” value is “similarly improved” and the relative cell number entry is “significantly improved”. For the same compound, in [4], the “αSyn-aggregation (FITC-anti-αSyn antibody staining)” value is “suppressed”. Further, in data set [1] (2.5 mg/Kg, 3x/wk, IP, 5 weeks, vs saline, 2.5 mg/kg), the “motor function (grip duration, irritant removal, pole climbing tests)” value is recorded as “significantly improved motor function; also recorded: improves motor function”. In [5], the “TH+ dopaminergic neuron number in SNpc” value is listed as “increase in TH+ dopaminergic cells; also recorded: neuron number increase”, the “striatal dopamine (DA) levels” value was “elevation of striatal dopamine; also recorded: DA levels increase” and the “αSyn aggregates in TH+ cells of SNpc” value is on record as “reduction of αSynuclein; also recorded: αSyn aggregates decrease”. For the same compound, the “cognitive function, T-maze rate of alternation” value in data set [6] was “improves cognitive function”.
Turning to GM1, the “share of the administered dose able to penetrate the brain” value in data set [7] was “less than 1%”. Also, the striatal dopamine levels result in [8] was “increased striatal dopamine levels”. For the same compound, the “% of cells with neurites” value in [3] (GM1 at 100 μM) is “similarly improved”. Besides, the relative cell number result in data set [3] (GM1 at 100 μM, compared with LIGA-20 and compound 6 at 1 μM) is on record as “equivalent”. For the same compound, the “protection of cells from apoptosis” value in data set [9] is listed as “provided protection of the cells from apoptosis”. Also, in data set [10], the “progression of motor function loss” value is on record as “slowed the progression of motor function loss”.
